# Patent US7411090B2, “Process for the recovery of citric acid” (A.E. Staley Manufacturing Company, priority 2003, dated 2008)
# Experiment: Extraction into non-amine (NA) solvent from solutions containing both glucose and citric acid
# Format: physicochemical
# Settings: selectivity decreases with increase in distribution of citric into solvent phase
# From the text: The citric/glucose selectivity decreases with the increase in the distribution of citric into the solvent phase.
structure (smiles),measurement,value
O=C(O)CC(O)(CC(=O)O)C(=O)O [citric acid],citric/glucose selectivity of extraction into the NA solvent,selectively extracted
